PMC7162861, “Synthesis, cytotoxicity, pharmacokinetic profile, binding with DNA and BSA of new imidazo[1,2-a]pyrazine-benzo[d]imidazol-5-yl hybrids” (Scientific Reports, 2020)

How the values were obtained:
CCRF-CEM = test: NCI cytotoxicity screen, Leukemia panel; format: cell-based
Method: (§1) Cytotoxicity was performed at National Cancer Institute (NCI), Bethesda, USA as per their protocols.

HL-60(TB) = test: NCI cytotoxicity screen, Leukemia panel; format: cell-based
Method: as §1

K-562 = test: NCI cytotoxicity screen, Leukemia panel; format: cell-based
Method: as §1

MOLT-4 = test: NCI cytotoxicity screen, Leukemia panel; format: cell-based; settings: MOLT-4
Method: as §1

RPMI-8226 = test: NCI cytotoxicity screen, Leukemia panel; format: cell-based; settings: for GI50: RPMI-8226, RPMI-8226
Method: as §1

SR = test: NCI cytotoxicity screen, Leukemia panel; format: cell-based
Method: as §1

[1] = NCI cytotoxicity screen, Non-Small Cell Lung Cancer panel; format: cell-based; settings: Homo sapiens; EXVX; five dose 0.01–100 µM; read-out: LC50 (the source's name)
Method: as §1

HCC-2998 = test: NCI cytotoxicity screen, Colon Cancer panel; format: cell-based, human
Method: as §1

KM12 = test: NCI cytotoxicity screen, Colon Cancer panel; format: cell-based, human; settings: five dose 0.01–100 µM
Method: as §1

SW-620 = test: NCI cytotoxicity screen, Colon Cancer panel; format: cell-based, human; settings: five dose 0.01–100 µM
Method: as §1

SF-268 = test: NCI cytotoxicity screen, CNS Cancer panel; format: cell-based
Method: as §1

SF-295 = test: NCI cytotoxicity screen, CNS Cancer panel; format: cell-based
Method: as §1

SF-539 = test: NCI cytotoxicity screen, CNS Cancer panel; format: cell-based
Method: as §1

SNB-19 = test: NCI cytotoxicity screen, CNS Cancer panel; format: cell-based
Method: as §1

SNB-75 = test: NCI cytotoxicity screen, CNS Cancer panel; format: cell-based
Method: as §1

U251 = test: NCI cytotoxicity screen, CNS Cancer panel; format: cell-based
Method: as §1

786-0 = test: NCI cytotoxicity screen, Renal Cancer panel; format: cell-based, human; settings: five dose 0.01–100 µM
Method: as §1

TK-10 = test: NCI cytotoxicity screen, Renal Cancer panel; format: cell-based, human; settings: five dose 0.01–100 µM
Method: as §1

[2] = test system: Human Embryonic Kidney cells (HEK293); test: MTT assay on normal cell line; format: cell-based; settings: 48 h
Method: HEK-293 cells (human embryonic kidney cells) were grown in Dulbecco’s modified eagle’s medium (DMEM) supplemented with 100 U/ml penicillin, 10% FBS, […] streptomycin and 50 mM glutamine. Furthermore, cells were harvested using trypsin and seeded in a 96-well cell culture plate for the MTT (3-(4,5-Dimethylthiazol-2-yl)-2,5-diphenyltetrazolium bromide) assay. The test compound was solubilized in cell culture grade DMSO. Once the cells in 96-well plates were 70% confluent, the compound was injected to the cells at five concentrations (0.01, 0.1, 1, 10, 100 µM) at 37 °C for 48 h (made in DMEM supplemented with 1% antibiotic and 10% FBS). After 48 h, cells were washed with PBS and added with 100 μL of fresh media in each well along with 10 μL of MTT reagent (5 mg/mL) for another 4 h. After 4 h, the media was again removed and added 100 μL cell culture grade DMSO to dissolve the formazan crystals formed by the reduction of MTT by live cells. The quantity of formed formazan crystal was determined as alterations in absorbance at 570 nm wavelength using ELISA plate reader (Bio-Tek). All tests were accomplished three times. The cell toxicity (%) was calculated using the following formula: %CellToxicity=100−ODoftreatedwell/ODofuntreatedwell×100

CT-DNA = CT-DNA binding, fluorescence quenching (Stern-Volmer, Scatchard); design: species or system calf
Method: The stock solution of compound 31 (10^−3 M) was prepared in DMSO and diluted to required concentration using appropriate buffer solution. Calf thymus (CT)-DNA was dissolved in 10 mM Tris buffer of pH 7.4 having 1 mM EDTA at room temperature. The purity of DNA solution was determined by using the ratio of absorbance at 260 nm and 280 nm wavelength. Extinction coefficient 6600 M^−1 cm^−1 of single nucleotide at 260 nm was used to determine the concentration of the DNA solution. The stock solution of BSA (10^−3 M) was prepared in distilled water and stored at 4 °C temperature.
In the case of BSA experiments, fluorescence emission spectra were performed for BSA (10 µM) with increasing concentration of compound 31 (0–10 µM) in phosphate buffer (pH 7.4) at room temperature upon excitation at 280 nm. The dissociation constant of compound 31 was estimated by titrating the complex of compound 31 (10 µM) and BSA (10 µM) with increasing concentration of ibuprofen (0–15 µM), upon excitation at 280 nm. All emission spectra were recorded in the range of 200 to 800 nm.
Binding parameters KSV and Kq were calculated using the Stern-Volmer equation (Eq. 2):2 F0/F=1+Ksv[Analyte]=1+Kqτo[Analyte]
Fo denotes the emission intensity of derivative 31/BSA free from analyte (CT-DNA/ derivative 31), whereas, F denotes the emission intensity of derivative 31/BSA bound with analyte (CT-DNA/derivative 31). The values of KSV and Kq were determined from the plot of Fo/F vs. [analyte].
The binding parameters Kbin and n were determined using Scatchard equation (Eq. 3):3 logF0−F/F=logKbin+nlog[analyte]
Fo and F denote similar factors as those of the above Stern-Volmer equation. The values of Kbin and n were determined from the plot of log (Fo − F)/F vs. log [analyte].

[3] = Homo sapiens, five dose 0.01–100 µM, read-out: LC50 (the source's name)
[4] = Homo sapiens, read-out: Percent growth inhibition
[5] = Homo sapiens, five dose 0.01–100 µM

Which GI50 (CCRF-CEM; Homo sapiens) does the source give for `c1cn2cc(-c3ccc4ncn(C5CCCCC5)c4c3)nc(-c3ccc4c(c3)ncn4C3CCCCC3)c2n1` [Compound 31, 8-(1-cyclohexyl-1H-benzo[d]imidazol-5-yl)-6-(1-cyclohexyl-1H-benzo[d]imidazol-6-yl)imidazo[1,2-a]pyrazine] here?
Its GI50 is 1.69 µM.

And the CC50 (CCRF-CEM; [3])?
The CC50 was > 1 µM.

And the inhibition at 10 µM (CCRF-CEM; [4])?
Its inhibition at 10 µM is 95.7%.

What about the TGI (CCRF-CEM; five dose 0.01–100 µM) of the same compound?
Its TGI is 6.08 µM.

What about the TGI (HL-60(TB); HL-60(TB), five dose 0.01–100 µM) of the same compound?
The TGI was 4.57 µM.

And the GI50 (HL-60(TB); Homo sapiens, HL-60)?
The GI50 was 1.84 µM.

And the CC50 (HL-60(TB); Homo sapiens, HL-60(TB), five dose 0.01–100 µM, read-out: LC50 (the source's name))?
Its CC50 is > 1 µM.

And the GI50 (K-562; Homo sapiens, K562)?
The GI50 was 2.57 µM.

What about the CC50 (K-562; Homo sapiens, K562, K-562, five dose 0.01–100 µM, read-out: LC50 (the source's name)) of the same compound?
The CC50 was > 1 µM.

What about the TGI (K-562; K-562, five dose 0.01–100 µM) of the same compound?
Its TGI is >1.00 µM.

What about the GI50 (MOLT-4; Homo sapiens) of the same compound?
Its GI50 is 1.64 µM.

What about the CC50 (MOLT-4; [3]) of the same compound?
Its CC50 is > 1 µM.

What about the TGI (MOLT-4; five dose 0.01–100 µM) of the same compound?
The TGI was 5.22 µM.

And the GI50 (RPMI-8226; Homo sapiens, five dose)?
Its GI50 is 0.806 µM.

And the GI50 (RPMI-8226; [5])?
Its GI50 is 0.8 µM.

And the CC50 (RPMI-8226; Homo sapiens, RPMI-8226, five dose 0.01–100 µM, read-out: LC50 (the source's name))?
Its CC50 is > 1 µM.

And the TGI (RPMI-8226; RPMI-8226, five dose 0.01–100 µM)?
Its TGI is 3.99 µM.

And the GI50 (SR; Homo sapiens)?
Its GI50 is 2.87 µM.

And the CC50 (SR; [3])?
The CC50 was > 1 µM.

And the inhibition at 10 µM (SR; [4])?
Its inhibition at 10 µM is 97.5%.

What about the TGI (SR; five dose 0.01–100 µM) of the same compound?
The TGI was >1.00 µM.

And the CC50 [1]?
Its CC50 is > 1 µM.

What about the TGI (HCC-2998; HCC-2998, five dose 0.01–100 µM) of the same compound?
The TGI was 3.46 µM.

What about the GI50 (HCC-2998; Homo sapiens, HCC 2998) of the same compound?
The GI50 was 1.81 µM.

What about the GI50 (KM12; Homo sapiens) of the same compound?
Its GI50 is 2.01 µM.

And the TGI (KM12)?
The TGI was 3.83 µM.

What about the GI50 (SW-620; Homo sapiens) of the same compound?
Its GI50 is 2.08 µM.

What about the TGI (SW-620) of the same compound?
Its TGI is 3.97 µM.

And the GI50 (SF-268; Homo sapiens)?
Its GI50 is 1.59 µM.

What about the CC50 (SF-268; [3]) of the same compound?
Its CC50 is 6.23 µM.

And the TGI (SF-268; five dose 0.01–100 µM)?
The TGI was 3.15 µM.

What about the GI50 (SF-295; Homo sapiens) of the same compound?
Its GI50 is 1.71 µM.

What about the CC50 (SF-295; [3]) of the same compound?
The CC50 was 5.8 µM.

What about the TGI (SF-295; five dose 0.01–100 µM) of the same compound?
The TGI was 3.15 µM.

What about the GI50 (SF-539; Homo sapiens) of the same compound?
Its GI50 is 1.63 µM.

And the LC50 (concentration killing 50% of cells) (SF-539; [5])?
The LC50 (concentration killing 50% of cells) was 6.1 µM.

And the TGI (SF-539; five dose 0.01–100 µM)?
The TGI was 3.15 µM.

And the GI50 (SNB-19; Homo sapiens, SNB-19)?
The GI50 was 2.11 µM.

What about the inhibition at 10 µM (SNB-19; Homo sapiens, SNB-19, read-out: Percent growth inhibition) of the same compound?
Its inhibition at 10 µM is 93.4%.

What about the TGI (SNB-19; SNB-19, five dose 0.01–100 µM) of the same compound?
Its TGI is 4.95 µM.

What about the GI50 (SNB-75; Homo sapiens) of the same compound?
The GI50 was 1.39 µM.

What about the LC50 (SNB-75; [5]) of the same compound?
The LC50 was 6.77 µM.

What about the TGI (SNB-75; five dose 0.01–100 µM) of the same compound?
Its TGI is 3.07 µM.

And the GI50 (U251; Homo sapiens, U-251)?
The GI50 was 1.91 µM.

And the CC50 (U251; Homo sapiens, U-251, U251, five dose 0.01–100 µM, read-out: LC50 (the source's name))?
Its CC50 is 6.98 µM.

And the TGI (U251; U251, five dose 0.01–100 µM)?
Its TGI is 3.65 µM.

What about the GI50 (786-0; Homo sapiens) of the same compound?
Its GI50 is 1.73 µM.

And the TGI (786-0)?
Its TGI is 3.47 µM.

What about the GI50 (TK-10; Homo sapiens) of the same compound?
Its GI50 is 2.02 µM.

And the TGI (TK-10)?
Its TGI is 3.65 µM.

What about the “% survival of HEK293 cells” value ([2]; 10^−4 M) of the same compound?
Its value is “above 79%”.

What about the “% survival of HEK293 cells” value ([2]; 10^−5 M) of the same compound?
The value was > 83%.

What about the “% survival of HEK293 cells” value ([2]; 10^−6 M) of the same compound?
Its value is > 84%.

And the “% survival of HEK293 cells” value ([2]; 10^−7 M)?
The value was > 89%.

And the “% survival of HEK293 cells” value ([2]; 10^−8 M)?
Its value is > 90%.

And the “Ksv (Stern-Volmer constant)” value (CT-DNA; CT-DNA, pH 7.4, 298 K)?
The value was 9300 M⁻¹.

What about the “Kq (apparent bimolecular quenching constant)” value (CT-DNA; CT-DNA, τo = 10^−8 s) of the same compound?
Its value is 9.3e+11 M⁻¹ s⁻¹.

What about the Kbin (CT-DNA; CT-DNA, Scatchard) of the same compound?
The Kbin was 95800 M⁻¹.

And the “binding constant (Kbin)” value (CT-DNA; CT-DNA, Scatchard)?
Its value is 95800 M⁻¹.

And the “n (number of binding sites)” value (CT-DNA; CT-DNA, Scatchard)?
Its value is 1.21.

And the KSV (CT-DNA; CT-DNA, Stern-Volmer constant)?
The KSV was 9300 M⁻¹.

What about the Kq (CT-DNA; CT-DNA, apparent bimolecular quenching constant) of the same compound?
The Kq was 9.3e+11 M⁻¹ s⁻¹.

What about the “quenching of fluorescence intensity” value (CT-DNA; compound 5 µM, CT-DNA 0–50 µM) of the same compound?
The value was 75%.
